In this assay the test system is lipoprotein proteome (LDL, HDL-L, HDL-S). Put plainly: Lipoprotein proteomics, spectral counting of LDL, HDL-L and HDL-S pools. Format: in vivo, human. The following applies: 28 days vs baseline. Here is the method: Collected plasma from each subject at baseline (n=10) and after 28 days of rosuvastatin treatment (n=10) was applied to two Superdex 200 columns (GE Healthcare) arranged in series on an Akta FPLC system. The flow rate was set to 0.5 mL/min and 0.5 mL fractions were collected. Fractions were assayed for phosphatidylcholine, total cholesterol, free cholesterol and triglyceride by enzymatic assays (Wako Diagnostics) to determine position of elution for lipoproteins. For each subject, fractions were combined to make LDL (elution vol. 17.5-20 mL), HDL-large (HDL-L; elution vol. 21-23 mL) and HDL-small (HDL-S; elution vol. 23-25 mL) pools, generating a total of 60 samples for MS analysis.
Pooled FPLC fractions were applied to a phospholipid binding resin and washed to isolate lipid bound protein components, as previously described (Gordon et al., J Proteome Res 9: 5239-5249, 2010). Resin bound proteins were then subjected to overnight trypsin digestion at 37° C. Resulting peptides were collected and then reduced with dithiothreitol (200 mM; 30 min at 37° C.) and carbamidomethylated with iodoacetamide (800 mM; 30 min at 25° C.). Digest solutions were dried, reconstituted in 100 μL of water+0.1% formic acid and desalted using ZipTips (Millipore), and stored at −20° C. until MS analysis.
Desalted samples were dried and reconstituted in 20 μL of water+0.1% formic acid and 10 μL was analyzed on a Thermo Orbitrap Velos Mass Spectrometer instrument. Blank runs were performed between each sample to prevent carry over. Peak lists were generated using Proteome Discoverer (version 1.3.0.339) and resulting spectra were searched against the SwissProt database (version 012214), using Mascot (version 2.4.0) to identify protein components of the lipoprotein fractions (fragment ion mass tolerance of 0.80 Da and a parent ion tolerance of 20 PPM). Search criteria included: human taxonomy, fixed modification: carbamidomethylation (C), variable modifications: oxidation (M), deamidation (N, Q) and up to two missed trypsin cleavage sites were allowed. Validation of peptide and protein identifications was performed using Scaffold software (version 4.1.1) and a 1.0% false discovery rate (FDR) for both peptide and protein thresholds and a minimum of 2 identified peptides were required per protein. Calculated decoy FDR for peptide and protein identifications were 0.03% and 0.7%, respectively. Spectral counting was used as a semi-quantitative comparison of protein abundance between baseline and on-treatment samples using normalized spectrum count calculated by the Scaffold software. Comparisons were only performed to estimate the relative abundance of the same protein in the same lipoprotein pool before and after rosuvastatin treatment; no comparisons were made between lipoprotein fractions. Data was analyzed by student's T-test to identify proteins with statistically significant (p<0.05) changes in normalized spectral counts. Because this MS analysis was intended primarily for screening purposes, to identify candidates for hypothesis driven functional experiments, the data analysis was not corrected for multiple comparisons. All MS data have been deposited to the ProteomeXchange Consortium (Vizcaino et al., Nat Biotechnol 32: 223-226, 2014) via the PRIDE partner repository with the dataset identifier PXD002633.
To test our hypothesis that rosuvastatin alters the lipoprotein proteome, we pooled fractions containing LDL and HDL and used mass spectrometry (MS) to analyze the lipid associated protein content of each of these lipoproteins in each subject at baseline and after 28 days on rosuvastatin. The HDL peak was divided into two halves, representing large and small HDL, to gain additional insight given the proteomic complexity of HDL. […]

For `CC(C)c1nc(N(C)S(C)(=O)=O)nc(-c2ccc(F)cc2)c1/C=C/[C@@H](O)C[C@@H](O)CC(=O)O` [rosuvastatin], where the note is “LDL fraction”, the “change in Ig kappa chain V-II spectral counts” value is “+68%”; the “change in complement C3 spectral counts” value is listed as “+71%”; the “magnitude of reductions in protein spectral counts, LDL fraction” value was −20 to −71%. Besides, where the note is “large HDL”, the “change in Ig lambda like polypeptide 5 spectral counts” value is reported as −12%, the “change in N-acetylmuramoyl-L-alanine amidase spectral counts” value is on record as −69%, the “change in alpha-1-antitrypsin (A1AT) spectral counts” value is “+2438%” and the “change in ceruloplasmin spectral counts” value is listed as “+27%”. Also, for the setting “large HDL”, the “change in clusterin spectral counts” value was −13%, the “change in kallikrein spectral counts” value was −26% and the “increase in A1AT spectral counts associated with large HDL” value turned out to be 24 fold. For the setting “small HDL fraction”, the “change in alpha-1-antichymotrypsin spectral counts” value is recorded as −89%, the “change in apolipoprotein C-III spectral counts” value was −13%, the “change in complement C2 spectral counts” value was −44% and the “change in vitronectin spectral counts” value is reported as “+23%”.

The values above are taken from patent publication US11872261B2, “Lipoprotein targeting protease inhibitors and uses” (The United States of America, as represented by the …, priority 2016, dated 2024).
